Measurements from ChEMBL document CHEMBL1133893, “Design and synthesis of a highly selective EP4-receptor agonist. Part 1: 3,7-dithiaPG derivatives with high selectivity” (Bioorg Med Chem Lett, 2001).

What was measured:
[1] = target: T1, Prostaglandin E2 receptor EP4 subtype (Mus musculus, UniProt P32240); assay: Evaluated for its competitive binding affinity towards mouse Prostanoid EP4 receptor in CHO cells expressing prostanoid receptor; type: cell-based
[2] = target: Prostaglandin E2 receptor EP2 subtype (Mus musculus, UniProt Q62053); assay: Evaluated for its competitive binding affinity towards mouse Prostanoid EP2 receptor in CHO cells expressing prostanoid receptor; type: cell-based
Sequence of Prostaglandin E2 receptor EP2 subtype (Q62053 whole entry): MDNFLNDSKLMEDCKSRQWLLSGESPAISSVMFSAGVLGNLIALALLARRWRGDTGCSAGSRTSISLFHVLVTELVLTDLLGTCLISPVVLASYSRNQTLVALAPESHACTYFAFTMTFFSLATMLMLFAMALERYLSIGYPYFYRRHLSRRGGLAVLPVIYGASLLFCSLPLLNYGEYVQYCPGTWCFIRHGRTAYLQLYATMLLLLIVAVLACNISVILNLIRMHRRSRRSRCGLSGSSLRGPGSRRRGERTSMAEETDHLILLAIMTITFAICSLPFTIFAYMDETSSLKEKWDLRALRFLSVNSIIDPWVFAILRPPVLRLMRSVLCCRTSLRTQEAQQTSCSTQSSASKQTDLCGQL

[3] = target: Prostacyclin receptor (Homo sapiens, UniProt P43119); assay: Evaluated for its competitive binding affinity towards human Prostanoid IP receptor in CHO cells; type: cell-based
Sequence of Prostacyclin receptor (P43119 whole entry): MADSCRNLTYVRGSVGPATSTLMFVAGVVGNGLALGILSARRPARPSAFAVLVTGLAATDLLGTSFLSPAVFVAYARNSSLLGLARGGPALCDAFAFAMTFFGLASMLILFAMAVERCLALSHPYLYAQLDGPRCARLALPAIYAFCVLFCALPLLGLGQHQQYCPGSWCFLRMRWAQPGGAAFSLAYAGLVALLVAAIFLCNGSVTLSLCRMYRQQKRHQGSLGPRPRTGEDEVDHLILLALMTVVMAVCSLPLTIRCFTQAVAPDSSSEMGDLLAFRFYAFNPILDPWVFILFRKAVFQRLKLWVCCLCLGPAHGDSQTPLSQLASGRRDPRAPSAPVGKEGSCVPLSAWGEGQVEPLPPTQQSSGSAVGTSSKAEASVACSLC

[4] = target: T2, Prostaglandin E2 receptor EP1 subtype (Mus musculus, UniProt P35375); assay: Evaluated for its competitive binding affinity towards mouse Prostanoid EP1 receptor in CHO cells expressing prostanoid receptor; type: cell-based
T2 sequence (P35375 whole entry): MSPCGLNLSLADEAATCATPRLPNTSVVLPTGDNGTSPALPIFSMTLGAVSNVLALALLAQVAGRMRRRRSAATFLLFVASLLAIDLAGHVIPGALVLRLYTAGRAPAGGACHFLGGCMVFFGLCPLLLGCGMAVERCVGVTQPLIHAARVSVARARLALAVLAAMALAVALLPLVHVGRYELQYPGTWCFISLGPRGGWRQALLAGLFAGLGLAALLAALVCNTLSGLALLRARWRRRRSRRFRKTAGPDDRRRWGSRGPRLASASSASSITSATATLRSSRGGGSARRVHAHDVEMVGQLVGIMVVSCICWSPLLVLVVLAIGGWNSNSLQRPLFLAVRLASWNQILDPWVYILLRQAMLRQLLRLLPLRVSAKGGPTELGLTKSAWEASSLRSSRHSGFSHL

[5] = target: T3, Prostaglandin E2 receptor EP3 subtype (Mus musculus, UniProt P30557); assay: Evaluated for its competitive binding affinity towards mouse Prostanoid EP3 receptor in CHO cells expressing prostanoid receptor; type: cell-based
T3 sequence (P30557 whole entry): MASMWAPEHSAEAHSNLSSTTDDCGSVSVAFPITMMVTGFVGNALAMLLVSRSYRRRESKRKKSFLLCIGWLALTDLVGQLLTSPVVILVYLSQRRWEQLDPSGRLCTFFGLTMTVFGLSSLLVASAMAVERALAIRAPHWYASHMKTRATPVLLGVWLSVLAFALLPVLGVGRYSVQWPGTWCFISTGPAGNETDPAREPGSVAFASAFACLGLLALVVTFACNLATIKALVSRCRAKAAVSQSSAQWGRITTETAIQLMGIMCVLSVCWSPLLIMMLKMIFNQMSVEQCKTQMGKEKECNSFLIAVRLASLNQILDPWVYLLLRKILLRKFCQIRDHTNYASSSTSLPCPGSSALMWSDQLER

[6] = target: T1, Prostaglandin E2 receptor EP4 subtype; assay: Effective concentration which increases intracellular c-AMP production in mouse Prostanoid EP4 receptor; type: functional, cell-based
[7] = Selectivity ratio (Prostanoid EP3 receptor/Prostanoid EP4 receptor) was determined

T1 sequence (P32240 whole entry): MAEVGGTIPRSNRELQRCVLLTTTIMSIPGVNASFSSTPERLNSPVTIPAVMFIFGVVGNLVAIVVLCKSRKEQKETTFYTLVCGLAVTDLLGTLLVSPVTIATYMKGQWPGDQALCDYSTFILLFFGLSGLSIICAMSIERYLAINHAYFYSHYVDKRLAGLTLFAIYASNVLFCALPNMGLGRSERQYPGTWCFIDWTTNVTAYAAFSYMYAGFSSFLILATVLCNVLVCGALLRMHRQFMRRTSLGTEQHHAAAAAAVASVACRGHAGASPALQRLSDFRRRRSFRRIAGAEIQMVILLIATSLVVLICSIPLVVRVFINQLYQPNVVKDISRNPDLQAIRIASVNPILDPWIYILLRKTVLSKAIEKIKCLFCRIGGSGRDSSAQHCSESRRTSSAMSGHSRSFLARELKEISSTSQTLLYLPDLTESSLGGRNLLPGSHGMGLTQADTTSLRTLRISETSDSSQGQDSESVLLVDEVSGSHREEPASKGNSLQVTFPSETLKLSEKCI

| Structure (SMILES) | Ki [1] | Ki [2] | Ki [3] | Ki [4] | Ki [5] | EC50 [6] | Selectivity ratio [7] |
| --- | --- | --- | --- | --- | --- | --- | --- |
| CCCC[C@H](C)C[C@H](O)/C=C/[C@H]1[C@H](O)CC(=O)[C@@H]1SCCCCCC(=O)O | 0.4 nM | 14 nM | 3.3 nM | 11 nM | 6.1 nM | – | – |
| CCCCC[C@H](O)/C=C/[C@H]1[C@H](O)CC(=O)[C@@H]1CSCCSCC(=O)O | 28 nM | 1000 nM | > 10000 nM | 50 nM | 3.5 nM | 7800 nM | – |
| Cc1ccccc1C[C@H](O)/C=C/[C@H]1[C@H](O)CC(=O)[C@@H]1SCCCSCC(=O)O | 22 nM | 2500 nM | > 10000 nM | > 10000 nM | 140 nM | 420 nM | – |
| COCc1cccc(C[C@H](O)/C=C/[C@H]2[C@H](O)CC(=O)[C@@H]2SCCCSCC(=O)O)c1 | 3.1 nM | 2100 nM | > 10000 nM | > 10000 nM | 1200 nM | 3.1 nM | 120 |
| CCCCC[C@H](O)/C=C/[C@H]1[C@H](O)CC(=O)[C@@H]1SCCSCCC(=O)O | 3.2 nM | 1200 nM | > 10000 nM | 610 nM | 4.4 nM | 170 nM | – |
| CCCCC[C@H](O)/C=C/[C@H]1[C@H](O)CC(=O)[C@@H]1SCCCSCC(=O)O | 0.7 nM | 280 nM | > 10000 nM | 610 nM | 220 nM | 4.3 nM | – |
| Cc1cccc(C[C@H](O)/C=C/[C@H]2[C@H](O)CC(=O)[C@@H]2SCCCSCC(=O)O)c1 | 1.9 nM | 760 nM | > 10000 nM | > 10000 nM | 100 nM | 2.8 nM | – |
| COc1ccccc1C[C@H](O)/C=C/[C@H]1[C@H](O)CC(=O)[C@@H]1SCCCSCC(=O)O | 32 nM | 2600 nM | > 10000 nM | > 10000 nM | 1100 nM | 580 nM | 50 |
| CCCOCc1cccc(C[C@H](O)/C=C/[C@H]2[C@H](O)CC(=O)[C@@H]2SCCCSCC(=O)O)c1 | 5.2 nM | 7700 nM | > 10000 nM | > 10000 nM | 3000 nM | 10 nM | – |
| COCCCc1cccc(C[C@H](O)/C=C/[C@H]2[C@H](O)CC(=O)[C@@H]2SCCCSCC(=O)O)c1 | 100 nM | > 10000 nM | > 10000 nM | > 10000 nM | > 10000 nM | 44 nM | – |
| COc1cccc(C[C@H](O)/C=C/[C@H]2[C@H](O)CC(=O)[C@@H]2SCCCSCC(=O)O)c1 | 9.9 nM | > 10000 nM | > 10000 nM | > 10000 nM | 510 nM | 37 nM | 50 |
| COCCc1cccc(C[C@H](O)/C=C/[C@H]2[C@H](O)CC(=O)[C@@H]2SCCCSCC(=O)O)c1 | 8.5 nM | 3100 nM | > 10000 nM | > 10000 nM | 3000 nM | 12 nM | – |
| CCCCC[C@H](O)/C=C/[C@H]1[C@H](O)CC(=O)[C@@H]1CCCCCCC(=O)O [ALPROSTADIL] | – | 41 nM | – | 22 nM | – | 2.5 nM | – |
| CCOCc1cccc(C[C@H](O)/C=C/[C@H]2[C@H](O)CC(=O)[C@@H]2SCCCSCC(=O)O)c1 | 9.4 nM | > 10000 nM | > 10000 nM | > 10000 nM | 4500 nM | 2.5 nM | 450 |
| CCCCC[C@H](O)/C=C/[C@H]1[C@H](O)CC(=O)[C@@H]1SCCCOCC(=O)O | 2.3 nM | 150 nM | 510 nM | 1200 nM | 11 nM | 7.7 nM | – |
| CSCc1cccc(C[C@H](O)/C=C/[C@H]2[C@H](O)CC(=O)[C@@H]2SCCCSCC(=O)O)c1 | 6 nM | 5300 nM | > 10000 nM | > 10000 nM | 430 nM | 4.8 nM | 70 |
| Cc1ccc(C[C@H](O)/C=C/[C@H]2[C@H](O)CC(=O)[C@@H]2SCCCSCC(=O)O)cc1 | 7.3 nM | 1200 nM | > 10000 nM | > 10000 nM | 72 nM | 270 nM | – |
| CCCCC[C@H](O)/C=C/[C@H]1[C@H](O)CC(=O)[C@@H]1SCCCCCC(=O)O | 0.7 nM | 100 nM | 870 nM | 120 nM | 4.5 nM | 3.7 nM | – |
| COc1ccc(C[C@H](O)/C=C/[C@H]2[C@H](O)CC(=O)[C@@H]2SCCCSCC(=O)O)cc1 | 7.1 nM | 1500 nM | > 10000 nM | 3100 nM | 220 nM | 32 nM | 50 |
| O=C(O)CSCCCS[C@H]1C(=O)C[C@@H](O)[C@@H]1/C=C/[C@@H](O)Cc1ccccc1 | 7 nM | 3900 nM | > 10000 nM | 2600 nM | 130 nM | 34 nM | – |
